Measured values: EP4725941A1, “ARYLAMIDE DERIVATIVE HAVING ANTITUMOR ACTIVITY” (priority 2020, dated 2021)
Where two headings read alike, the source gives them in different places.

Assays:
MEK1 = biological target: T1, MEK1 (Homo sapiens, UniProt Q02750); assay: MEK1-inhibiting activity, fluorescent polarization method (CRAF/MEK1/ERK2 cascade, IMAP); format: biochemical; conditions: Table 3; read-out: MEK1 IC50
T1 construct: purchased Thermo Fisher Scientific Inc. (MEK1, CRAF); Carna Biosciences, Inc. (ERK2)
T1 sequence (Q02750 whole entry): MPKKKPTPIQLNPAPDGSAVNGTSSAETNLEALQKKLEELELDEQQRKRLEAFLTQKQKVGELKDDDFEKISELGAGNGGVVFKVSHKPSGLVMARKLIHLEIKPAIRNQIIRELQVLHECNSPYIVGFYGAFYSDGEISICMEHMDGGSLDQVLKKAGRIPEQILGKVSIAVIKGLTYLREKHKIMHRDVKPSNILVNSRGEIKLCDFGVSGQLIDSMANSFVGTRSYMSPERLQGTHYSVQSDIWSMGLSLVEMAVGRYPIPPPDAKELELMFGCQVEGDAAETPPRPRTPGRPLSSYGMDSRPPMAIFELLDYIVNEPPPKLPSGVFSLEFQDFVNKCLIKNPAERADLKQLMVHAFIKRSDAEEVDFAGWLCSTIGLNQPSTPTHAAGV
Description: The MEK1-inhibiting activity of the compounds listed in Table 3 below were evaluated by the fluorescent polarization method as described below.

Calu-6 = assay: Cell proliferation-inhibiting activity (ATP in viable cells, CellTiter-Glo), Calu-6; format: cell-based, human; conditions: Calu-6, 96 h, read-out: Calu-6 IC50
BRAF = biological target: T2, BRAF (Homo sapiens, UniProt P15056); assay: BRAF-inhibiting activity, time-resolved fluorescence-fluorescence resonance energy transfer assay; format: biochemical
T2 construct: purchased Eurofins Genomics KK; (BRAF); Thermo Fisher Scientific Inc. (MEK1)
T2 sequence (P15056 417-766 limits assumed): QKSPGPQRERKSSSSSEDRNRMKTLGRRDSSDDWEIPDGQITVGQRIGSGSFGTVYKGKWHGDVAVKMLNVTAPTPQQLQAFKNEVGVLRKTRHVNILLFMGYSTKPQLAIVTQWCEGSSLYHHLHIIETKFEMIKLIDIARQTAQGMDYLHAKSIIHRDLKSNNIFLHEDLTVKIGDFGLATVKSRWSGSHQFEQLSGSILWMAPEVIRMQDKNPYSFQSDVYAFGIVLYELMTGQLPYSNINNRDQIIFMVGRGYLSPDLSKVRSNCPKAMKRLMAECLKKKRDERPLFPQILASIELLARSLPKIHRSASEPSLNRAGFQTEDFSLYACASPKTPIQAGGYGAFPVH
Description: The BRAF-inhibiting activity of the compounds listed in Table 3 below was evaluated by the time-resolved fluorescence-fluorescence resonance energy transfer assay as described below.

NCI-H2122 = assay: Cell proliferation-inhibiting activity (ATP in viable cells, CellTiter-Glo), NCI-H2122; format: cell-based, human; conditions: NCI-H2122, 96 h, read-out: NCI-H2122 IC50
[1] = Human liver microsome stability; format: in vitro ADME; conditions: human liver microsomes, pH 7.4
[2] = human lung cancer cells, 4 days

| Structure (SMILES) | IC50 (MEK1) [nM] | IC50 (Calu-6; [2]) [nM] | IC50 (BRAF; read-out: BRAF IC50; Table 3) [nM] | IC50 (NCI-H2122; [2]) [nM] | microsomal CLint at 0.99 µM [1] [µL/min/mg] | IC50 (Calu-6; Homo sapiens) [nM] | IC50 (BRAF; Table 3; read-out: BRAF IC50) [nM] | IC50 (NCI-H2122; Homo sapiens) [nM] |
| --- | --- | --- | --- | --- | --- | --- | --- | --- |
| CS(=O)(=O)Nc1nccc(Cc2cc(C(=O)NC3CC3)c(Nc3ccc(I)cc3F)c(F)c2F)c1F [Compound B-14, N-Cyclopropyl-3,4-difluoro-2-(2-fluoro-4-iodoanilino)-5-[[3-fluoro-2-(methanesulfonamide)pyridin-4-yl]methyl]benzamide] | 104 | 74 | 13 | 11 | 4 | – | – | – |
| CONC(=O)c1cc(Cc2ccnc(NS(C)(=O)=O)c2F)c(F)c(F)c1Nc1ccc(I)cc1F [Compound B-15, 3,4-Difluoro-2-(2-fluoro-4-iodoanilino)-5-[[3-fluoro-2-(methanesulfonamide)pyridin-4-yl]methyl]-N-methoxybenzamide] | 8 | 60 | 4 | 6 | 13 | – | – | – |
| CCS(=O)(=O)Nc1nccc(Cc2cc(C(=O)NOC)c(Nc3ccc(I)cc3F)c(F)c2F)c1F [Compound B-16, 5-[[2-(ethylsulfonylamino)-3-fluoropyridin-4-yl]methyl]-3,4-difl uoro-2-(2-fluoro-4-iodoanilino)-N-methoxybenzamide] | 4 | 9 | 12 | 1 | 10 | – | – | – |
| CC1(NS(=O)(=O)Nc2cccc(Cc3cc(C(N)=O)c(Nc4ccc(I)cc4F)c(F)c3F)c2F)CCC1 [Compound D-9, 3,4-Difluoro-2-(2-fluoro-4-iodoanilino)-5-[[2-fluoro-3-[(1-methylcyclobutyl)sulfamoylamino]phenyl]methyl]benzamide] | 252 | 28 | 24 | 3 | 53 | – | – | – |
| CNS(=O)(=O)Nc1cccc(Cc2cc(C(=O)NOC)c(Nc3ccc(I)cc3F)c(F)c2F)c1F [Compound D-11, 3,4-Difluoro-2-(2-fluoro-4-iodoanilino)-5-[[2-fluoro-3-(methylsulfamoylamino)phenyl]methyl]-N-methoxybenzamide] | 6 | 2 | 3 | 0.3 | 24 | – | – | – |
| CONC(=O)c1cc(Cc2cccc(NS(N)(=O)=O)c2F)c(F)c(F)c1Nc1ccc(I)cc1F [Compound D-12, 3,4-Difluoro-2-(2-fluoro-4-iodoanilino)-5-[[2-fluoro-3-(sulfamoylamino)phenyl]methyl]-N-methoxybenzamide] | 15 | 6 | 14 | 0.4 | 18 | – | – | – |
| CONC(=O)c1cc(Cc2cccc(NS(=O)(=O)NC3(C)CCC3)c2F)c(F)c(F)c1Nc1ccc(I)cc1F [Compound D-13, 3,4-Difluoro-2-(2-fluoro-4-iodoanilino)-5-[[2-fluoro-3-[(1-methylcyclobutyl)sulfamoylamino]phenyl]methyl]-N-methoxybenzamide] | 29 | 6 | 18 | 1 | 88 | – | – | – |
| CNS(=O)(=O)Nc1cccc(Cc2cc(C(N)=O)c(Nc3ccc(C4CC4)cc3F)c(F)c2F)c1F [Compound D-14, 2-(4-Cyclopropyl-2-fluoroanilino)-3,4-difluoro-5-[[2-fluoro-3-(methylsulfamoylamino)phenyl]methyl]benzamide] | 1600 | – | – | – | 15 | 117 | 7 | 10 |
| CNS(=O)(=O)Nc1cccc(Cc2cc(C(=O)NOC)c(Nc3ccc(C4CC4)cc3F)c(F)c2F)c1F [Compound D-16, 2-(4-Cyclopropyl-2-fluoroanilino)-3,4-difluoro-5-[[2-fluoro-3-(methylsulfamoylamino)phenyl]methyl]-N-methoxybenzamide] | 48 | – | – | – | 51 | 17 | 6 | 1 |
